Data as given in publication PMC6430685 (Nature chemical biology, 2019).

Target: BAX (Homo sapiens, UniProt Q07812)
Type: biochemical

Chain of BAX (Q07812 whole entry): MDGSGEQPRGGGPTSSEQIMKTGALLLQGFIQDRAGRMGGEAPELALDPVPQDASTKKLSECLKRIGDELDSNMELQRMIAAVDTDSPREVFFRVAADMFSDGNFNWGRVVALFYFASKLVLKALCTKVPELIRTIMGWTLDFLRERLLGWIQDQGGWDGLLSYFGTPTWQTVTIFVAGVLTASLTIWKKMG

Structure (SMILES): OC(CN1CCNCC1)Cn1c2ccccc2c2ccccc21 (stereo not shown) [BAI3]
- fold lower activity compared to BAI1: ~ 7 fold
